One assay has as its target T1, hACC1 (Homo sapiens, UniProt Q13085).
T1 construct: PCR primers were designed for full-length hACC1 and hACC2 using GenBank submissions AY237919 and AJ575592, respectively; His tag (C); made in house; host or cells: baculovirus, Sf9 insect cells
Put plainly: [14C]bicarbonate incorporation assay, overall ACC activity. Format: biochemical. To be noted: recombinant hACC1, overall ACC activity. Put shortly: (§1)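 His-tagged full-length hACC1 or hACC2 (residues 1-148 deleted, Met-Gly added), expressed in sf9 cells with biotin and purified, were assayed by [14C]bicarbonate incorporation into acetyl-CoA. Reactions at pH 7.4 with 2 mM acetyl-CoA, 12 mM NaHCO3 and 1% DMSO were started with 2 mM ATP and run 10 min at 37° C. Acid-stable label was counted and IC50 obtained from dose-response fits.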

In a further assay the target is T2, hACC2 (Homo sapiens, UniProt O00763).
T2 construct: delete amino acids 1-148 and add Met-Gly in front of Lys149 in the final product; His tag (C); made in house; host or cells: baculovirus, Sf9 insect cells
The assay is described as above. The class given is biochemical. The conditions noted are these: recombinant hACC2, overall ACC activity. Put shortly:
as §1

For assay [1], the system named is PC-3 human prostate cancer cells. Put plainly: MTT Cell Proliferation Assay. To be noted: 72 hours, read-out: Percent of Control PC-3. The class given is cell-based. Put shortly: (§2)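 Cells seeded and grown 24 h at 37 °C, 5% CO2, then exposed to compound for 72 h. Viability read by MTT reduction (4 h) after overnight lysis/solubilization. Results expressed as percent of control versus compound concentration.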

The test system of assay [2] is MDA-MB-231 human breast cancer cells. Put plainly: MTT Cell Proliferation Assay. The class given is cell-based. To be noted: 72 hours, read-out: Percent of Control MDA-MB-231. In outline: as §2
Assay [3] relates to HCT-116 human colon cancer cells. Put plainly: MTT Cell Proliferation Assay. The class given is cell-based. The conditions noted are these: 72 hours, read-out: Percent of Control HCT-116. In outline: as §2
For assay [4], the system named is A2780 human ovary cancer cells. Put plainly: MTT Cell Proliferation Assay. Format: cell-based. To be noted: 72 hours, read-out: Percent of Control A2780. Put shortly:
as §2

T2 sequence (O00763 149-2458 limits assumed): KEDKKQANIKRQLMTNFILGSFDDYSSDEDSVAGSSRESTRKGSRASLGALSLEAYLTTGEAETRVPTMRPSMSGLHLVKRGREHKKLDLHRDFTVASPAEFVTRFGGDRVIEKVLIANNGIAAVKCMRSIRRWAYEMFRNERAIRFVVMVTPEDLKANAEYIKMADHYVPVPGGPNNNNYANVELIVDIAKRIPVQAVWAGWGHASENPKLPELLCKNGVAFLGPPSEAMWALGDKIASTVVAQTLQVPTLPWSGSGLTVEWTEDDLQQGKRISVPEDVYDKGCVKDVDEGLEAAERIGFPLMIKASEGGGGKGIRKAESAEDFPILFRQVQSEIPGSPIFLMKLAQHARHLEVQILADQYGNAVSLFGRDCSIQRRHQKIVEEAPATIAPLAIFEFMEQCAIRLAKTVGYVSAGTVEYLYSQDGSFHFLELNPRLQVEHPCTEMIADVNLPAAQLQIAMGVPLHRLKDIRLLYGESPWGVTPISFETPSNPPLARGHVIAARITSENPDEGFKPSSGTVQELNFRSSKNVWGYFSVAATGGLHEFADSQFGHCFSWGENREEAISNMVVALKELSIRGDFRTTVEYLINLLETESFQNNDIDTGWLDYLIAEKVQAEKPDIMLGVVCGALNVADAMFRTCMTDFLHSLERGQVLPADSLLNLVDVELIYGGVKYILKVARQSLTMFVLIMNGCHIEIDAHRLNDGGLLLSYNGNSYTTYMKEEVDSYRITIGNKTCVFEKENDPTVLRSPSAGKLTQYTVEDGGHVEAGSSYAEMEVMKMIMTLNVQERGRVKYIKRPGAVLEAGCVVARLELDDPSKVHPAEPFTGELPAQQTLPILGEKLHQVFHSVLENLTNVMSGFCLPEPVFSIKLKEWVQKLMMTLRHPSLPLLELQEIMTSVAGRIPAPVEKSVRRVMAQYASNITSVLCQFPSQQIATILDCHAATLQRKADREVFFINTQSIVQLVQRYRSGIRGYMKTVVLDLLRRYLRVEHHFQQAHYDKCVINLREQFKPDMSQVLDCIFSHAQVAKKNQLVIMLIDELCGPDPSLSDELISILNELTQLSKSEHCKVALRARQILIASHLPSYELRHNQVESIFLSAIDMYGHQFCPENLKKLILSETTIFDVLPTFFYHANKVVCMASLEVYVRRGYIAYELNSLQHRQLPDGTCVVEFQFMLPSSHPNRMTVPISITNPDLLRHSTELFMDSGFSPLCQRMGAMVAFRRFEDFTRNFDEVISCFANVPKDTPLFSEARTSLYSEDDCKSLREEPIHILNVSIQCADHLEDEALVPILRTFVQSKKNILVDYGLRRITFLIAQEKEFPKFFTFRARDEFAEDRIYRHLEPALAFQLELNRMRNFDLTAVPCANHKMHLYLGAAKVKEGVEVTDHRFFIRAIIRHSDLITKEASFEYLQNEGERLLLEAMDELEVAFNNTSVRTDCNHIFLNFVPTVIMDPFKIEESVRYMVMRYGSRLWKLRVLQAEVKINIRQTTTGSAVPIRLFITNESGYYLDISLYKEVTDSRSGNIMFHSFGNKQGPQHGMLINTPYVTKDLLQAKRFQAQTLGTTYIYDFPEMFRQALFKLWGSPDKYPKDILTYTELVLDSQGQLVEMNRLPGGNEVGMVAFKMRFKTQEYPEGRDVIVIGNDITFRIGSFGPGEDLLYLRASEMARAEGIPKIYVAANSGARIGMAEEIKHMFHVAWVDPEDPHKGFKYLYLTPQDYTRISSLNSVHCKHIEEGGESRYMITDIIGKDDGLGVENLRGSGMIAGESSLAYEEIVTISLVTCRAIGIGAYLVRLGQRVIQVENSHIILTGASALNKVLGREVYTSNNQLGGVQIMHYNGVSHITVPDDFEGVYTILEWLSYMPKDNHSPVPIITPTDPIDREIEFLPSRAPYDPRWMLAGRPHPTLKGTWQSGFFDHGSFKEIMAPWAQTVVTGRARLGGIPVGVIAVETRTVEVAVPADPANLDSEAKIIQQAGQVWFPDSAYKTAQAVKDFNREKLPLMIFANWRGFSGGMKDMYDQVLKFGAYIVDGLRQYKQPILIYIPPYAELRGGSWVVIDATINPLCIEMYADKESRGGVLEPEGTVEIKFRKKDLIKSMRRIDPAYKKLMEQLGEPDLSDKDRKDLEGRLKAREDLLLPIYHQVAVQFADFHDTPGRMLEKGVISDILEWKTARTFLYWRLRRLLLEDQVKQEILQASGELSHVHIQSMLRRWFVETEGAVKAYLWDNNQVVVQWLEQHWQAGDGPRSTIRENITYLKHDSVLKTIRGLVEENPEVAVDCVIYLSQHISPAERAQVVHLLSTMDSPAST

One may read the IC50 as the concentration at which inhibition is half-maximal. `COc1cc(C(=O)N2CCC3(CC2)NC(=O)c2cc(OC(C)C)ccc2O3)nc2c(OC)cccc12` [Compound 169]: the IC50 at hACC1 stood at 7.5 nM; at hACC2, 7.4 nM. Moreover, the activity at 3.3 µM amounted to 54.7% in assay [1], 81.4% in assay [2], 57.2% in assay [3] and 80.5% in assay [4]. Besides, the activity at 10 µM in assay [1] came out at 52.1%; in assay [2], 47.8%; in assay [3], 45%; in assay [4], 56.5%.

As for `COc1ccc2c(c1)C(=O)NC1(CCN(C(=O)c3cc(OC)c4cccc(OC)c4n3)CC1)O2` [Compound 150], the IC50 at hACC1 was found to be 26 nM; on hACC2 it was 23 nM. Moreover, the activity at 3.3 µM came out at 60.7% in assay [1], 76.1% in assay [2], 70.2% in assay [3] and 86.5% in assay [4]. The activity at 10 µM came to 47.7% in assay [1], 50.2% in assay [2], 59.4% in assay [3] and 57.6% in assay [4].

For the molecule `COc1cc(C(=O)N2CCC3(CC2)NC(=O)c2cc(Br)ccc2O3)nc2c(OC)cccc12` [Compound 2, 6-Bromo-1′-[(4,8-dimethoxyquinoline-2-yl)carbonyl]spiro[2H-1,3-benzoxazine-2,4′-piperidine]-4(3H)-one], the concentration for half-maximal inhibition (IC50) was 88 nM on hACC1 and 51 nM at hACC2.

For the origin of these results see patent US8110570B2, “Modulators of acetyl-coenzyme A carboxylase and methods of use thereof” (Cropsolution, Inc., priority 2008, dated 2012).
